Test results from patent publication US20190309272A1, “Genetically Modified Cell Lines Including a TP53 Modification and Methods of Use” (UNIVERSITY OF SOUTH CAROLINA, priority 2018, published 2019).
Structures can show the parent of a compound that is named as a salt.

Columns and labels:
Assay type in all cases: cell-based, Human
Settings in all cases: ten-day drug treatment, 156.25 nM to 10 μM, resazurin fluorescence
[1] = test system: MCF7 WT Parental pool; experiment: Drug screening, resazurin, MCF7 wild type parental pool
[2] = test system: MCF7 TP53 KO 3.4 pool; experiment: Drug screening, resazurin, TP53 KO 3.4 pool
[3] = test system: MCF7 TP53 KO 5.6 pool; experiment: Drug screening, resazurin, TP53 KO 5.6 pool

SMILES	MCF7 WT Parental pool (AUC) [1]	TP53 KO 3.4 pool (AUC) [2]	TP53 KO 5.6 pool (AUC) [3]
CC(=O)O[C@]1(C(C)=O)CC[C@H]2[C@@H]3C=C(C)C4=CC(=O)CC[C@]4(C)[C@H]3CC[C@@]21C [Megestrol Acetate]	9.824	9.221	9.555
N[C@@H](Cc1ccc(N(CCCl)CCCl)cc1)C(=O)O [Melphalan Hydrochloride]	5.766	6.158	5.95
S=c1nc[nH]c2nc[nH]c12 [Mercaptopurine]	6.103	5.941	5.636
COc1c2occc2cc2ccc(=O)oc12 [Methoxsalen]	8.476	10.56	10.48
CO[C@@]12[C@H](COC(N)=O)C3=C(C(=O)C(C)=C(N)C3=O)N1C[C@@H]1N[C@@H]12 [Mitomycin]	1.122	1.003	0.912
Clc1ccc(C(c2ccccc2Cl)C(Cl)Cl)cc1 (stereo not drawn) [Mitotane]	5.932	11.01	10.17
COc1nc(N)nc2c1ncn2[C@@H]1O[C@H](CO)[C@@H](O)[C@@H]1O [Nelarabine]	8.659	11.04	10.08
Cc1cn(-c2cc(NC(=O)c3ccc(C)c(Nc4nccc(-c5cccnc5)n4)c3)cc(C(F)(F)F)c2)cn1 [Nilotinib]	5.834	6.967	4.891
O=C(c1cc(Cc2n[nH]c(=O)c3ccccc23)ccc1F)N1CCN(C(=O)C2CC2)CC1 [Olaparib]	5.48	8.58	7.433
COC(=O)C[C@](O)(CCCC(C)(C)O)C(=O)O[C@@H]1C(OC)=C[C@]23CCCN2CCc2cc4c(cc2[C@H]13)OCO4 [Omacetaxine Mepesuccinate]	0.7749	0.7692	0.7717
C=CC(=O)Nc1cc(Nc2nccc(-c3cn(C)c4ccccc34)n2)c(OC)cc1N(C)CCN(C)C [Osimertinib]	4.149	4.056	4.044
CC(=O)O[C@H]1C(=O)[C@@]2(C)[C@H]([C@H](OC(=O)c3ccccc3)[C@]3(O)C[C@H](OC(=O)[C@H](O)[C@@H](NC(=O)c4ccccc4)c4ccccc4)C(C)=C1C3(C)C)[C@]1(OC(C)=O)CO[C@@H]1C[C@@H]2O [Paclitaxel]	1.453	1.453	1.432
Cc1[nH]c2ccccc2c1CCNCc1ccc(/C=C/C(=O)NO)cc1 [Panobinostat]	0.6418	0.5862	0.5971
Cc1ccc(Nc2nccc(N(C)c3ccc4c(C)n(C)nc4c3)n2)cc1S(N)(=O)=O [Pazopanib Hydrochloride]	6.767	6.259	6.349
Nc1nc2[nH]cc(CCc3ccc(C(=O)N[C@@H](CCC(=O)O)C(=O)O)cc3)c2c(=O)[nH]1 [Pemetrexed Disodium Salt Heptahydrate]	2.501	2.438	2.852
O=C(CCBr)N1CCN(C(=O)CCBr)CC1 [Pipobroman]	8.767	8.997	7.66
c1cc(CN2CCCNCCNCCCNCC2)ccc1CN1CCCNCCNCCCNCC1 [Plerixafor]	9	8.893	8.524
Nc1cccc2c1C(=O)N(C1CCC(=O)NC1=O)C2=O (stereo not drawn) [Pomalidomide]	10.08	9.902	10.13
